Laboratory results taken from a compilation of properties of binary mixtures (doi:10.1021/acs.jced.0c00728).

Assay: xn = mol fraction of the nth substance listed
Conditions: 100 kPa

CCC(=O)O + CC[n+]1ccn(C)c1.F[B-](F)(F)F
speed of sound [m/s]
Conditions	293.15 K	303.15 K	313.15 K	323.15 K	333.15 K
x2 = 0	1171	1134	–	1060	1025
x2 = 0.0497	1173	1145	1111	1080	1054
x2 = 0.0888	1213	1187	1160	1130	1105
x2 = 0.1876	–	1332	1313	1291	1270
x2 = 0.2982	1463	1442	–	1396	1376
x2 = 0.3836	1496	–	1456	–	1415
x2 = 0.4908	–	1500	–	1457	–
x2 = 0.5907	–	1521	1496	–	1463
x2 = 0.6891	–	1548	1524	1501	1480
x2 = 0.78	1593	1572	1549	1525	1506
x2 = 0.8899	1617	1593	1571	–	1525
x2 = 0.9453	1629	1607	1584	–	–

CC[n+]1ccn(C)c1.F[B-](F)(F)F + CCC(=O)O
x1 = 1
Conditions	speed of sound [m/s]
303.15 K	1618
313.15 K	1595
333.15 K	1550
